Reference: patent US20080076729A1, “Interferon-beta gene therapy using an improved, regulated expression system” (Schering Aktiengesellachaft, priority 2005, published 2008)

Experiments:
Format in all cases: in vivo
Mx1 RNA = Mx1 RNA induction in PBMCs of treated mice (quantitative RT-PCR, normalized to GAPDH)
Method: FIG. 6 illustrates Mx1 RNA induction following i.v. (A) or i.m. injection (B) of mIFN-β protein. C57BL/6 mice were administered 15, 150, or 500 ng of purified recombinant mIFN-β protein (specific activity-2.0×10^8 units/mg) by either i.v. (via tail vein) or i.m. injection (n=3 mice per group). At the specified time points post-injection mice were bled, and RNA was isolated from PBMCs. Mx1 RNA was measured by quantitative RT-PCR. The fold increase in Mx1 RNA is expressed relative to GAPDH values measured in the same samples. The controls include naive mice (N), and mice injected with the vehicle buffer only followed by Mx1 analysis at 2 hours (V2 h) or 4 h (V4 h) post-injection. Each column represents the mean value +/− standard deviation.

IP-10 = IP-10 chemokine level in plasma/serum of treated mice by ELISA
Method: FIG. 7 illustrates induction levels of IP-10 (A) and JE (B) following i.v. or i.m. injection of murine IFN-β protein. C57BL/6 mice were administered 15, 150, or 500 ng of purified recombinant mIFN-β protein (specific activity=2.0×10^8 units/mg) by either i.v. (via tail vein) or i.m. injection (n=3 mice per group). The mice were bled at 2, 4, 6, 12, 24, and 48 hours post-injection, and the plasma levels of IP-10 and JE were measured by ELISA (R&D Systems).
FIG. 8 illustrates the induction of IP-10 following intramuscular injection of AAV-1-mIFN-β DNA or mIFN-β plasmid DNA with electroporation (EP) in mice. […] Mice were bled at the indicated time points and IP-10 levels in plasma were determined by ELISA. […]
• A. Development of mIFN-β Biomarkers: For higher sensitivity in detection of murine IFN-β (mIFN-β) activity in vivo, biomarkers for mIFN-β activity were identified in mice after injection of mIFN-β protein or mIFN-β encoded gene therapy vectors. […] In the present study, the expression of the MxA mouse homologue, Mx1, (see e.g., Hug, H et al. Mol Cell Biol 8: 3065-79; Pavlovic, J (1993) Ciba Found Symp 176: 233-43) isolated from murine peripheral blood monocytes (PBMC's) was used to detect the presence of biologically active mIFN-β. • A quantitative PCR/RT-PCR assay was developed to quantitate the levels of Mx1 mRNA in murine PBMC's. […]

SJL mice with acute EAE = assay: Mouse acute EAE model, daily clinical scoring

With “mIFN-β: purified recombinant murine interferon-beta protein” the “time after injection beyond which no Mx1 RNA levels above background were detected” value (Mx1 RNA; bolus protein) was 12 h, the “Induction of Mx1 RNA expression relative to vehicle injected mice” value (Mx1 RNA; bolus protein 15, 150 or 500 ng, i.v. or i.m.) was 25- to 50 fold and the “Tmax of induction of all three biomarkers (Mx1, IP-10, JE)” value (Mx1 RNA; bolus protein i.v. or i.m.) was “approximately 2 hours”. The “time after injection of highest Mx1 expression levels” value (Mx1 RNA; bolus protein i.v. or i.m.) was 2 h, the “time post-injection within which biomarker levels dropped to background” value (Mx1 RNA; bolus protein i.v. or i.m.) was 12 to 24 h and the “dose giving highest Mx1 induction” value (Mx1 RNA; i.v. injection, diminished at 500 ng) was 150 ng. For the same substance, the “time by which plasma IP-10 dropped to background” value (IP-10; bolus protein, each of three doses) was no more than 24 h, the IP-10 levels increase (IP-10; high dose (500 ng) delivered i.v., 2 hours) was 3000 fold and the “clinical scores of EAE compared to vehicle treated mice” value (SJL mice with acute EAE; 30,000 units s.c. every other day, first study) was “did not reach statistical significance”. The “clinical scores of EAE compared to vehicle control” value (SJL mice with acute EAE; 100,000 Units s.c. every other day, second study (FIG. 12)) was “significantly decreased clinical scores”, the “severity of the disease (clinical scores) compared to vehicle treated animals” value (SJL mice with acute EAE; 100,000 or 300,000 units SC every other day, 25 day study (FIG. 39A)) was “significantly reduced the severity of the disease” and the “clinical scores of EAE compared with vehicle treated mice” value (SJL mice with acute EAE; 100,000 units s.c. every other day, first study (FIG. 11)) was “significantly decreased clinical scores”.
